Entries after “also recorded” stand apart in the source; their conditions may differ.
Key:
[1] = LC–MS/MS detection of D10-SRP-001 and AM404 in the periaqueductal gray (PAG); type: in vivo, rats; conditions: 32 mg/kg ip, 30 min post-injection, rats with CFA or vehicle
Description: Next, we sought to define the uptake of SRP-001 in the nociception area of the brain, the midbrain’s periaqueductal (PAG) area[42],[43]. Thirty min following ip-SRP-001 administration (32 mg/kg), the PAG was harvested and analyzed by LC/MS–MS. D10-SRP-001 was used to match the fragmentation pattern while monitoring analytes.
Deuterated compound D10-SRP-001 was synthesized by Olon Ricerca Bioscience (Concord, OH), and purity was determined to be > 99.9% by HPLC. This was used as pure analytical standard for detection of SRP-001 using an LC–MS/MS method. Similarly, pure analytical standard of AM404 (10 ng/mL) obtained from Cayman Chemical (Ann Arbor, MI) was used to characterize the full fragmentation pattern of AM404. […] Thirty min post-injection, the animals were sacrificed (same as in the CFA/von Frey model), their brains harvested, and the midbrain periaqueductal gray (PAG) region excised. SRP-001 or AM404 were extracted from the PAG using a liquid–liquid extraction method using 1:1 MeOH:H2O for LC–MS/MS and were loaded onto a liquid chromatography-tandem mass spectrophotometer for analysis. The mass spectrophotometer was operated in multiple reaction monitoring (MRM) mode using positive ion electrospray. D10-SRP-001 was detected by monitoring the m/z transition 416 → 186. AM404 was detected by monitoring the m/z transition 396 → 287.

[2] = tested on: Rat liver and stomach cells; test: In vivo mammalian alkaline comet assay; design: species or system rats
Description: Male Sprague–Dawley rats were orally administered SRP-001 at 500, 1000, or 2000 mg/kg/dose for two consecutive days at a dose volume of 10 mL/kg/dose (Bioreliance, Rockville, MD USA). The vehicle control was 10% Labrasol, 10% DMSO, and 80% PEG400. The positive control for the Comet assay, ethyl methanesulfonate (EMS), was orally administered at 200 mg/kg/dose for two consecutive days at a dose volume of 10 mL/kg/dose. […] Animals were euthanized 3–4 h after the last dose administration. The liver and glandular stomach were collected and processed for comet evaluation.
The group mean % tail DNA for the vehicle control was within the 95% control limit of the study historical data range, with one animal (#160) exceeding the individual animal 95% control limit but within the minimum/maximum range. Additionally, three animals (#173, 174, and 175) in the mid-dose (1000 mg/kg/dose) group likewise exceeded the individual animal 95% control limit but were within the minimum/maximum range.
The group mean % tail DNA for the vehicle control was within the 95% control limit of the study historical data range, with one animal (#158) exceeding both the individual animal 95% control limit and minimum/maximum ranges. One animal (#171) in the mid-dose (1000 mg/kg/dose) group and one animal (#180) in the high-dose (2000 mg/kg/dose) group exceeded just the 95% control limit range but were within the minimum/maximum range. One animal (#170) in the mid-dose (1000 mg/kg/dose) group and one animal (#179) in the high-dose (2000 mg/kg/dose) group exceeded both the individual animal 95% control limit and minimum/maximum ranges.

Row | Compound | AM404 production in the periaqueductal gray region [1] | % tail DNA, glandular stomach ([2]; 500, 1000, 2000 mg/kg/dose) | % tail DNA, liver ([2]; 500, 1000, 2000 mg/kg/dose) | Comet assay result (DNA damage in liver and stomach) ([2]; up to 2000 mg/kg/dose, two consecutive days, oral)
1 | CC(=O)Nc1ccc(O)cc1 [ApAP, acetaminophen, reference compound] | diminished |  |  | 
2 | CCN(CC)C(=O)c1ccccc1S(=O)(=O)NCC(=O)Nc1ccc(O)cc1 [SRP-001, N,N-diethyl-2-[[2-(4-hydroxyanilino)-2-oxo-ethyl]sulfamoyl]benzamide] |  | No statistically significant increases | No statistically significant increases | negative; also recorded: negative (non-DNA damaging)
